The values that follow come from PubChem BioAssay (NCI).

Test systems include BT-549 breast; DU-145 prostate; EKVX NSCLC; HCC-2998 colon; HL-60(TB) leukemia; IGROV1 ovarian; K-562 leukemia; MOLT-4 leukemia; SK-MEL-2 melanoma; T-47D breast.
Common to all, as to assay: NCI-60 cell line screen, 48 h

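How tested: cells in 96-well plates exposed to compound for 48 hours at five concentrations. At the TGI there is no net growth.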 Some results are limits rather than exact numbers.

`N#CC(C#N)=CNC(=S)c1ccncc1`: the TGI in the assay on BT-549 breast was 80.3 µM; in the assay with DU-145 prostate, > 100 µM; in the assay with EKVX NSCLC, > 100 µM; with HCC-2998 colon, > 100 µM; in the assay on HL-60(TB) leukemia, > 100 µM; in the assay with IGROV1 ovarian, > 100 µM. Also, the TGI with K-562 leukemia, with MOLT-4 leukemia, in the assay on SK-MEL-2 melanoma and in the assay on T-47D breast was > 100 µM throughout.
